Active and inactive are the calls of the source.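 The calls were made as follows: active = IC50 below 100 µM in the TR-FRET assay, unless also active in the caspase-3 counter assay; inactive = the rest, including compounds also active in caspase-3.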
Target: Caspase-3 (Homo sapiens) (UniProt P42574)
Assay: caspase-3 inhibitors as false-positive filter, SAR follow-up, counter-screen for UBC13 polyubiquitin inhibitor project, biochemical, luminescence, Caspase-Glo 3/7, set 2 (AID 588375)
Conditions: recombinant caspase-3, Caspase-Glo luminescence, 60 min

Caspase-3 (Homo sapiens), sequence (P42574 whole entry, looked up): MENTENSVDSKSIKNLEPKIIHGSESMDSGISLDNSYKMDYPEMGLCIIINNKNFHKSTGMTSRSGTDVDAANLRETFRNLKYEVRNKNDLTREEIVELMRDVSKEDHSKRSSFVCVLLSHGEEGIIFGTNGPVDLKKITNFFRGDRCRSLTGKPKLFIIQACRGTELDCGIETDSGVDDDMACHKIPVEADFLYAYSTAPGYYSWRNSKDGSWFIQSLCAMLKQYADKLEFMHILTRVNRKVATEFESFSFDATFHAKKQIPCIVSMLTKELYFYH

Row | Compound | IC50
1 | O=C(C1CCN(c2ncnc3c2nc2n3CCCCC2)CC1)N1CCN(Cc2ccccc2)CC1 | > 100 µM (inactive)
2 | COc1ccccc1N1CCN(CCCNC(=O)C2CCCN(c3ncnc4c3nc3n4CCCCC3)C2)CC1 (configuration not stated) | > 100 µM (inactive)
3 | Cc1nc2ccccc2n1C1CCN(CC(=O)Nc2ccccc2Oc2ccccc2)CC1 | > 100 µM (inactive)
4 | O=C(c1ccco1)N1CCN(C(=O)C2CCN(c3ncnc4c3nc3n4CCCCC3)CC2)CC1 | > 100 µM (inactive)
5 | Cc1nc2cc(F)ccc2n1C1CCN(CC(=O)Nc2ccccc2)CC1 | > 100 µM (inactive)
6 | O=C(CN1CCC(n2cnc3cc(C(F)(F)F)ccc32)CC1)Nc1ccc2c(c1)OCCO2 | > 100 µM (inactive)
7 | CC1(C)Cc2c(sc(NC(=O)C(=O)NCC3CCCO3)c2C(N)=O)CO1 (configuration not stated) | > 100 µM (inactive)
8 | O=C(NCCCN1CCN(c2ccc(F)cc2)CC1)C1CCCN(c2ncnc3c2nc2n3CCCCC2)C1 (configuration not stated) | > 100 µM (inactive)
9 | COc1ccc(OC)c(NC(=O)CN2CCC(n3cnc4cc(F)ccc43)CC2)c1 | > 100 µM (inactive)
10 | O=C(CN1CCC(n2cnc3cc(F)ccc32)CC1)Nc1cccc(C(F)(F)F)c1 | > 100 µM (inactive)
11 | Cc1ccc(C)c(N2CCN(CCCNC(=O)C3CCCN(c4ncnc5c4nc4n5CCCCC4)C3)CC2)c1 (configuration not stated) | > 100 µM (inactive)
12 | COC(=O)c1c(NC(=O)C(=O)NCC2CCCO2)sc2c1CC(C)(C)OC2 (configuration not stated) | > 100 µM (inactive)
13 | Cc1cccc(N2CCN(CCCNC(=O)C3CCCN(c4ncnc5c4nc4n5CCCCC4)C3)CC2C)c1 (configuration not stated) | > 100 µM (inactive)
14 | O=C(C1CCN(c2ncnc3c2nc2n3CCCCC2)CC1)N1CCN(c2ccc(F)cc2)CC1 | > 100 µM (inactive)
15 | CC1(C)Cc2c(sc(NC(=O)C(=O)NCC3CCCO3)c2C(=O)O)CO1 (configuration not stated) | > 100 µM (inactive)
16 | O=C(CN1CCC(n2c(C(F)(F)F)nc3cc(F)ccc32)CC1)Nc1ccc2c(c1)OCO2 | > 100 µM (inactive)
17 | O=C(C1CCN(c2ncnc3c2nc2n3CCCCC2)CC1)N1CCN(c2ncccn2)CC1 | > 100 µM (inactive)
18 | COc1ccc(OC)c(NC(=O)CN2CCC(n3c(C)nc4cc(F)ccc43)CC2)c1 | > 100 µM (inactive)
19 | O=C(CN1CCC(n2cnc3cc(F)ccc32)CC1)Nc1ccccc1Br | > 100 µM (inactive)
20 | Cc1cccc(NC(=O)CN2CCC(n3cnc4cc(F)ccc43)CC2)c1C | > 100 µM (inactive)
21 | O=C(C1CCN(c2ncnc3c2nc2n3CCCCC2)CC1)N1CCN(c2ccccn2)CC1 | > 100 µM (inactive)
22 | CCOc1ccccc1NC(=O)CN1CCC(n2cnc3cc(F)ccc32)CC1 | > 100 µM (inactive)
23 | CC1(C)Cc2c(sc(NC(=O)C(=O)NCCN3CCOCC3)c2C(N)=O)CO1 | > 100 µM (inactive)
24 | O=C(NCCCN1CCN(c2ccccc2)CC1)C1CCCN(c2ncnc3c2nc2n3CCCCC2)C1 (configuration not stated) | > 100 µM (inactive)
25 | CCOc1ccc(NC(=O)CN2CCC(n3cnc4cc(F)ccc43)CC2)cc1 | > 100 µM (inactive)
26 | CC1(C)Cc2c(sc(NC(=O)C(=O)N3CCCC3)c2C(N)=O)CO1 | > 100 µM (inactive)
27 | COc1ccc(NC(=O)CN2CCC(n3c(C)nc4cc(F)ccc43)CC2)c(OC)c1 | > 100 µM (inactive)
